Where only a bound is given, the exact number is not on record here.

This is an account of results in paper PMC7180452, “Purine and Purine Isostere Derivatives of Ferrocene: An Evaluation of ADME, Antitumor and Electrochemical Properties” (Molecules, 2020).

The test system of series [1] is hepatocellular carcinoma (HepG2). Kind of series: In vitro antiproliferative activity, HepG2. The conditions noted are these: HepG2 cells. The class given is cell-based, human. As for the experimental part: (§1) Antiproliferative activity of compounds 11a−11c, 12a−12c, 13a−13c, 14a−14c, 15a−15c, 16a, 23a−23c, 24a−24c, 25a−25c, 34a−34c and 35a−35c was evaluated in vitro on four human tumor cell lines (American Type Culture Collection, Manassas, VA, USA): metastatic colorectal adenocarcinoma (SW620), ductal pancreatic adenocarcinoma (CFPAC-1), hepatocellular carcinoma (HepG2) and cervical carcinoma (HeLa) as well as normal skin fibroblasts (HFF).

Series [2] deals with metastatic colorectal adenocarcinoma (SW620). Kind of series: In vitro antiproliferative activity, SW620. To be noted: SW620 cells. It counts as cell-based, human. As for the experimental part: as §1
A short description of series [3]: Turbidimetric kinetic solubility assay. To be noted: PBS, 1% DMSO, 37 °C, 2 h, estimated range.
Description: The turbidimetric solubility assay, which allows a rapid determination of the kinetic solubility of newly synthesized compounds using small amounts of their DMSO solutions, was used to assess the kinetic solubility [38].
The compounds’ DMSO stock solutions in concentration of 10 mM were serially diluted by factor 3.3×, 3×, 3.3× and 3× in DMSO. Prepared solutions were spiked into phosphate-buffered saline (PBS, 100 mM) to obtain final compounds’ concentrations of 100, 30, 10, 3 and 1 µM (3 µL of prepared dilutions were spiked to 297 µL of PBS, with final DMSO content of 1%, v/v). All compounds were tested in two replicas per concentration. Prepared solutions were incubated at 37 °C for 2 h with gentle shaking. Blank solutions were also prepared by spiking DMSO in PBS buffer (1% of DMSO, v/v). […] Compound/control samples are compared to the blank solution. […] Results were expressed as an estimated solubility range (lower and upper bound).
Series [4] can be described thus: Chrom logD determination (fast-gradient HPLC). The conditions noted are these: pH 7.4.
Series [5] concerns cervical carcinoma (HeLa). Kind of series: In vitro antiproliferative activity, HeLa. It counts as cell-based, human. The conditions noted are these: HeLa cells. As for the experimental part: as §1
Series [6] deals with normal skin fibroblasts (HFF). Kind of series: Cytotoxicity on non-tumor cells, HFF. It counts as cell-based, human. As to the method: as §1
In series [7] the test system is ductal pancreatic adenocarcinoma (CFPAC-1). The experiment in a line: In vitro antiproliferative activity, CFPAC-1. The class given is cell-based, human. To be noted: CFPAC-1 cells. As for the experimental part: as §1

Regarding `[Fe+2].c1cc[c-](-c2cn(CCn3ccc4c(N5CCCC5)ncnc43)nn2)c1.c1cc[cH-]c1` [Compound 34b, 4-(Pyrrolidin-1-yl)-7-[2-(4-ferrocenyl-1,2,3-triazol-1-yl)ethyl]-7H-pyrrolo[2,3-d]pyrimidine], the IC50 in series [1], in series [2], in series [5], in series [6] and in series [7] was greater than 100 µM throughout. Moreover, the “Kinetic Solubility” value in series [3] was 10 to 30 µM. The “Chrom logD” value in series [4] was 4.30.
For the compound `Clc1ncnc2ncn(Cc3cn(-[c-]4cccc4)nn3)c12.[Fe+2].c1cc[cH-]c1` [Compound 15c, 6-Chloro-7-[1-(1-ferrocenyl-1,2,3-triazol-1-yl)methyl]-7H-purine], the half-inhibitory concentration (IC50) (as a rule, the point on the concentration scale where inhibition reaches its midpoint) in series [1] amounted to 81.7 ± 17.1 µM; in series [2], 45.5 ± 4.52 µM; in series [5], 69.2 ± 25.5 µM; in series [6], 29.6 ± 4.28 µM; in series [7], 72.2 ± 13.7 µM. Also, in series [3], the “Kinetic Solubility” value is given as greater than 100 µM. For the same compound, the “Chrom logD” value in series [4] is on record as 3.68.
For `Nc1nc(Cl)c2ncn(Cc3cn(C[c-]4cccc4)nn3)c2n1.[Fe+2].c1cc[cH-]c1` [Compound 14a, 2-Amino-6-chloro-9-[1-(1-ferrocenymethyl-1,2,3-triazol-4-yl)methyl]-9H-purine], the IC50 in series [1] was 60.1 ± 5.73 µM; in series [2], 60.2 ± 24.4 µM; in series [5], 71.4 ± 16.1 µM; in series [6] it was greater than 100 µM; in series [7] it was 49.5 ± 5.03 µM. Further, in series [3], the “Kinetic Solubility” value was 30 to 100 µM. For the same compound, the “Chrom logD” value in series [4] stood at 3.62.
Turning to `Clc1ncnc2c1ncn2Cc1cn(-[c-]2cccc2)nn1.[Fe+2].c1cc[cH-]c1` [Compound 13c, 6-Chloro-9-[1-(1-ferrocenyl-1,2,3-triazol-1-yl)methyl]-9H-purine], the concentration for half-maximal inhibition (IC50) amounted to 54.7 ± 3.21 µM in series [1]; 51.8 ± 1.9 µM in series [2]; 46.8 ± 6.72 µM in series [5]; 6.77 ± 2.78 µM in series [6]; 54.7 ± 5.13 µM in series [7]. Moreover, in series [3], the “Kinetic Solubility” value is reported as greater than 100 µM. For the same compound, the “Chrom logD” value in series [4] is 4.19.
In the case of `[Fe+2].c1cc[c-](-c2cn(CCn3ccc4c(N5CCCCC5)ncnc43)nn2)c1.c1cc[cH-]c1` [Compound 34c, 4-(Piperidin-1-yl)-7-[2-(4-ferrocenyl-1,2,3-triazol-1-yl)ethyl]-7H-pyrrolo[2,3-d]pyrimidine], the concentration for half-maximal inhibition (IC50) in series [1] was found to be 57.6 ± 13.8 µM; in series [2], 57.6 ± 6.55 µM; in series [5] it was 71.1 ± 15.9 µM; in series [6], 20.2 ± 1.54 µM; in series [7], 45.8 ± 9.11 µM. In series [3], the “Kinetic Solubility” value is 10 to 30 µM. Further, in series [4], the “Chrom logD” value amounted to 5.49.
For the compound `Nc1ncnc2c1ncn2Cc1cn(-[c-]2cccc2)nn1.[Fe+2].c1cc[cH-]c1` [Compound 12c, 6-Amino-9-[1-(1-ferrocenyl-1,2,3-triazol-1-yl)methyl]-9H-purine], the IC50 in series [1] is greater than 100 µM; in series [2], greater than 100 µM; in series [5], greater than 100 µM; in series [6] it was 54.5 ± 4.96 µM; in series [7] it was greater than 100 µM. The “Kinetic Solubility” value in series [3] was 3 to 10 µM. For the same compound, in series [4], the “Chrom logD” value is on record as 2.64.
Take `Nc1nc(Cl)c2c(ncn2Cc2cn(C[c-]3cccc3)nn2)n1.[Fe+2].c1cc[cH-]c1` [Compound 16a, 2-Amino-6-chloro-7-[1-(1-ferrocenymethyl-1,2,3-triazol-4-yl)methyl]-7H-purine]: the IC50 in series [1] is greater than 100 µM; in series [2] it was greater than 100 µM; in series [5] it was greater than 100 µM; in series [6], 5.3 ± 5.36 µM; in series [7] it was greater than 100 µM. In addition, the “Kinetic Solubility” value in series [3] was less than 1 µM. Besides, the “Chrom logD” value in series [4] was 3.37.
With `Clc1ncnc2c1ccn2CCn1cc(-[c-]2cccc2)nn1.[Fe+2].c1cc[cH-]c1` [Compound 34a, 4-Chloro-7-(2-(4-ferrocenyl-1,2,3-triazol-1-yl)ethyl)-7H-pyrrolo[2,3-d]pyrimidine], the concentration for half-maximal inhibition (IC50) in series [1], in series [2], in series [5], in series [6] and in series [7] was greater than 100 µM in each case. In series [3], the “Kinetic Solubility” value is 10 to 30 µM. For the same compound, the “Chrom logD” value in series [4] is 4.92.
For `Nc1nc(Cl)c2ncn(Cc3cn(-[c-]4cccc4)nn3)c2n1.[Fe+2].c1cc[cH-]c1` [Compound 14c, 2-Amino-6-chloro-9-[1-(1-ferrocenyl-1,2,3-triazol-1-yl)methyl]-9H-purine], the IC50 in series [1] is greater than 100 µM; in series [2], 81.3 ± 1.23 µM; in series [5] it was greater than 100 µM; in series [6], 24.6 ± 4.45 µM; in series [7], 90.5 ± 1.83 µM. In addition, the “Kinetic Solubility” value in series [3] is less than 1 µM. For the same compound, in series [4], the “Chrom logD” value was 3.50.
Take `Clc1ncnc2c1ncn2CCn1cc(-[c-]2cccc2)nn1.[Fe+2].c1cc[cH-]c1` [Compound 35a, 6-Chloro-9-[2-(4-ferrocenyl-1,2,3-triazol-1-yl)ethyl]-9H-purine]: the 50% inhibitory concentration (IC50) was 48.1 ± 7.85 µM in series [1]; 78.2 ± 5.69 µM in series [2]; 63 ± 6.06 µM in series [5]; 6 ± 2.99 µM in series [6]; 65.3 ± 6.23 µM in series [7]. Further, the “Kinetic Solubility” value in series [3] was 10 to 30 µM. The “Chrom logD” value in series [4] is 3.70.
As to `Nc1ncnc2c1ncn2Cc1cn(C[c-]2cccc2)nn1.[Fe+2].c1cc[cH-]c1` [Compound 12a, 6-Amino-9-[1-(1-ferrocenymethyl-1,2,3-triazol-4-yl)methyl]-9H-purine], the half-inhibitory concentration (IC50) in series [1] was greater than 100 µM; in series [2] it was greater than 100 µM; in series [5], greater than 100 µM; in series [6], 56.6 ± 15.6 µM; in series [7] it was greater than 100 µM. Besides, in series [3], the “Kinetic Solubility” value was 30 to 100 µM. Moreover, in series [4], the “Chrom logD” value was determined as 2.85.
`[Fe+2].c1cc[c-](-c2cn(CCn3cnc4c(N5CCCC5)ncnc43)nn2)c1.c1cc[cH-]c1` [Compound 35b, 6-(Pyrrolidin-1-yl)-9-[2-(4-ferrocenyl-1,2,3-triazol-1-yl)ethyl]-9H-purine]: the IC50 in series [1], in series [2], in series [5], in series [6] and in series [7] was greater than 100 µM in each case. For the same compound, the “Kinetic Solubility” value in series [3] was 30 to 100 µM. Also, the “Chrom logD” value in series [4] is listed as 3.58.
With `[Fe+2].c1cc[c-](-c2cn(CCn3cnc4c(N5CCCCC5)ncnc43)nn2)c1.c1cc[cH-]c1` [Compound 35c, 6-(Piperidin-1-yl)-9-[2-(4-ferrocenyl-1,2,3-triazol-1-yl)ethyl]-9H-purine], the IC50 in series [1] was greater than 100 µM; in series [2] it was greater than 100 µM; in series [5], greater than 100 µM; in series [6], 6.83 ± 2.17 µM; in series [7], greater than 100 µM. The “Kinetic Solubility” value in series [3] was 10 to 30 µM. Moreover, the “Chrom logD” value in series [4] worked out at 5.02.
Regarding `CC([c-]1cccc1)n1cc(Cn2cnc3c(Cl)nc(N)nc32)nn1.[Fe+2].c1cc[cH-]c1` (centres unmarked) [Compound 14b, 2-Amino-6-chloro-9-[1-(1-ferrocenyl-1-methylmethyl-1,2,3-triazol-4-yl)methyl]-9H-purine], the IC50 in series [1] was 77.1 ± 5.92 µM; in series [2], 98.7 ± 19.7 µM; in series [5], greater than 100 µM; in series [6], 11.5 ± 5.09 µM; in series [7], 67.4 ± 9.12 µM. Moreover, the “Kinetic Solubility” value in series [3] is 30 to 100 µM. Besides, the “Chrom logD” value in series [4] is recorded as 3.90.
